Test results: publication PMC7854685, “Histone Parylation factor 1 contributes to the inhibition of PARP1 by cancer drugs” (Nature Communications, 2021)
Values joined by “and” are separate entries in the source; they are usually repeats but may differ in a detail not shown here. Equal entries are not always repeated. “Also recorded” adds a separate entry of the source. Where two headings read alike, the source gives them in different places. Marks after values point to notes of the source that are not given here. Each block holds one compound with its values, some of them ahead of it.

Assays:
[1] = target: T1, PARP1 (Homo sapiens, UniProt P09874); test: Release of fluorescently labeled p18mer DNA (fluorescence polarization) upon NAD+ addition, KI determination for PARPi, with or without HPF1; type: biochemical; parameters: Wild-type PARP1 and PARP2 were expressed and purified as previously described; made in house;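 also: PARP1 bound to fluorescein-tagged DNA and preincubated with inhibitor, then high NAD+ added, drop in fluorescence polarization tracked as the DNA dissociates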;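 as to slope: slope of the inhibitor-concentration replot from which KI is derived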
T1 sequence (P09874 whole entry): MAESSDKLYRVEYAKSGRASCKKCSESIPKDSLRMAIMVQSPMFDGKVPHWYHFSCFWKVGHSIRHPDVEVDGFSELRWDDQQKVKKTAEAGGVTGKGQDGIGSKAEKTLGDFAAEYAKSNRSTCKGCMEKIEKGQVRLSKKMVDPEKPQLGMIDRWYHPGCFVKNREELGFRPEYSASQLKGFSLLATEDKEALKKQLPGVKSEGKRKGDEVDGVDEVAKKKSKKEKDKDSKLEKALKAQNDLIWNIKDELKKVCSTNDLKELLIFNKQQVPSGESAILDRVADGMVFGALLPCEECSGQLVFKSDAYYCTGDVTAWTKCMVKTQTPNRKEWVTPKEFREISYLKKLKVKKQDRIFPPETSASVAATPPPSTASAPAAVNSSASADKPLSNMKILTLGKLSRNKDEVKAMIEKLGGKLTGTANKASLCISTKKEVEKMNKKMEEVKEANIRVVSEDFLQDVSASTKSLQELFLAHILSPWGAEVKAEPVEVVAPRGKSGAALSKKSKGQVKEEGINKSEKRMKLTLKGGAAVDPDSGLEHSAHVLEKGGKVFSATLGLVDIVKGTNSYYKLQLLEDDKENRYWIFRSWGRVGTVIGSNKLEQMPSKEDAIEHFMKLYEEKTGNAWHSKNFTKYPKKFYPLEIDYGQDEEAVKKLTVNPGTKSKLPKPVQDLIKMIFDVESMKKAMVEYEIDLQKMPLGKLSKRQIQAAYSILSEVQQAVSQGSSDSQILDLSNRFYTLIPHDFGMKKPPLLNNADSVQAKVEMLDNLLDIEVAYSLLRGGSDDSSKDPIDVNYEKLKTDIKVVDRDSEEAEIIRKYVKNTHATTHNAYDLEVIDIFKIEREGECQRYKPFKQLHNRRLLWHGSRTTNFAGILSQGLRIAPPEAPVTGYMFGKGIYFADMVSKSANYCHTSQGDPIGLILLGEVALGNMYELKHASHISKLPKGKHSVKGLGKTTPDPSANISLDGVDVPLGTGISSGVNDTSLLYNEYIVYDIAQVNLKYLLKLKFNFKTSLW
Description: (§1) Starting with a complex of PARP1 or PARP2 bound to a PARPi and fluorescently labeled DNA, we monitor the loss of fluorescence polarization upon addition of high concentrations of NAD^+ (2 mM) as the labeled DNA is released from the PARylated PARPs (Fig. 1a).
(§2) Intuitively one might expect the observed rate of release of labeled DNA to reflect the slow dissociation of PARPi from the complex (koff; see Fig. 1a). However, the kinetics are actually more complex as there is competition between the inhibitor re-binding (kon[I]) and the binding of, and reaction with, NAD^+ (k2[NAD^+]) (Fig. 1a).
(§3) Next, 10 µL of PARP1 or PARP2 (10 nM) premixed with fluorescein labeled p18mer DNA (5 nM), was added to the various dilutions of PARPi and then incubated for 30 min to ensure complete association. Dissociation of labeled DNA was initiated by addition of 10 µL of NAD^+ (2 mM). […] We emphasize that the same correction is applied to the data for all PARPi. […] We can use the KI (derived from the slope of the replot, Fig. 2) and the minimal koff to calculate a minimal kon (KI = koff/kon, Supplementary Table 2).

[2] = target: T2, PARP2 (Homo sapiens, UniProt Q9UGN5); test: as above; type: biochemical
T2 construct: Wild-type PARP1 and PARP2 were expressed and purified as previously described; made in house
T2 sequence (Q9UGN5 whole entry): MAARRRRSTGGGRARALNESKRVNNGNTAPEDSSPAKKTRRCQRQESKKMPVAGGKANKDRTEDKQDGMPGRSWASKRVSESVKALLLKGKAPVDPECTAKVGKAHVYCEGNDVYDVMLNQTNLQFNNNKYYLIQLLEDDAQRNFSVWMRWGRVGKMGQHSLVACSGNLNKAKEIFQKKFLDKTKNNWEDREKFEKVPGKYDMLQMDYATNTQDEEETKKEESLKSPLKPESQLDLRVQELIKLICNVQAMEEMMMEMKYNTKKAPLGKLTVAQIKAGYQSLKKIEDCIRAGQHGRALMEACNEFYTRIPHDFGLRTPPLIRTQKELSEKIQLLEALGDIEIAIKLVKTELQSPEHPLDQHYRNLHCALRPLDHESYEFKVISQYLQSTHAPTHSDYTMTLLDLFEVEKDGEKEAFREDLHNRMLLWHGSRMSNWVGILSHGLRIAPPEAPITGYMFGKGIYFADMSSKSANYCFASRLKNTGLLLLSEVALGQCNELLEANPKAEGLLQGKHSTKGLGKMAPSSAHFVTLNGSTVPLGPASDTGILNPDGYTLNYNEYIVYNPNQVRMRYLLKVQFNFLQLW
Description: as §1, §2, §3

[3] = target: T1, PARP1; details: cited from earlier work
[4] = target: T2, PARP2; test: Fluorescence polarization association/dissociation of fl-Ola, with p18mer or Nuc165, with or without HPF1; type: binding; parameters: On (individual replicates): unit not given here;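 as to Kd: fluorescence polarization read every minute over 1000 min, association and dissociation traces fitted to a single exponential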;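 as to Off (individual replicates): fluorescence polarization read every minute over 1000 min, association and dissociation traces fitted to a single exponential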;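 as to On (individual replicates): fluorescence polarization read every minute over 1000 min, association and dissociation traces fitted to a single exponential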;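 as to On average: fluorescence polarization read every minute over 1000 min, association and dissociation traces fitted to a single exponential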
[5] = target: T1, PARP1; test: as above; type: binding; parameters: Wild-type PARP1 and PARP2 were expressed and purified as previously described; made in house; on rate (observed, single run): unit not given here
[6] = PARP1, +HPF1, single experiment
[7] = PARP1, without HPF1, single experiment
[8] = PARP2, +HPF1, single experiment
[9] = PARP2, without HPF1 (apo), single experiment
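For slope in this document: slope of the inhibitor-concentration replot from which KI is derived.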

t1/2est average ([1]; PARP1, +HPF1, average): 38.5 min
slope [1, 6]: 149 s/nM and 124 s/nM and 110 s/nM
t1/2est [1, 6]: 39 min and 37.5 min
t1/2est average ([1]; PARP1, without HPF1, average): 4.58 min
t1/2est [1, 7]: 4.75 min and 4.5 min
Structure (SMILES): NC(=O)c1cccc2[nH]c(-c3ccc([C@@H]4CCCN4)cc3F)nc12 [A-966492]
slope [1, 7]: 34.7 s/nM and 49.9 s/nM and 38.6 s/nM

Structure (SMILES): COC1CCN(C(=O)c2cc(Cc3n[nH]c(=O)c4ccccc34)ccc2F)CC1 [AZD-2461]
Fold (t-test) ([1]; PARP1, fold-difference in Ki caused by the addition of HPF1): 2.9 ** fold
Ki ([1]; PARP1 alone, p18mer DNA, 2 mM NAD+, read-out: Ki): 2200 ± 600 pM

Structure (SMILES): COC1CCN(C(=O)c2cc(Cc3n[nH]c(=O)c4ccccc34)ccc2F)CC1 [AZD]
koff (est) average ([1]; PARP1, +HPF1, average): ≥ 0.00058 s⁻¹
t1/2est average ([1]; PARP1, +HPF1, average): 20.75 min
Ki ([1]; PARP1, +HPF1, average, read-out: Ki average): 780 pM
slope [1, 6]: 49 s/nM and 51 s/nM and 67.1 s/nM and 43 s/nM
t1/2est [1, 6]: 17 min and 20 min and 29 min
Ki ([1]; PARP1, +HPF1, single experiment, read-out: Ki): 820 pM and 780 pM and 600 pM and 930 pM
kon ratio ([1]; PARP1, ratio of averages with and without HPF1): 1.75
Ki ratio ([1]; PARP1, ratio of averages without and with HPF1): 2.85
koff (est) average ([1]; PARP1, without HPF1, average): ≥ 0.00295 s⁻¹
t1/2est average ([1]; PARP1, without HPF1, average): 4.72 min
Ki ([1]; PARP1, without HPF1, average, read-out: Ki average): 2230 pM
slope [1, 7]: 9.4 s/nM and 16.4 s/nM and 15.8 s/nM and 16.1 s/nM and 10.2 s/nM and 11.0 s/nM
Ki ([1]; PARP1, without HPF1, single experiment, read-out: Ki): 2960 pM and 1690 pM and 1760 pM and 1730 pM and 2720 pM and 2530 pM

t1/2est average ([1]; PARP1, +HPF1, average): 28.33 min
t1/2est [1, 6]: 29 min and 28 min
t1/2est average ([1]; PARP1, without HPF1, average): 8.7 min
t1/2est [1, 7]: 5.5 min and 11 min and 9.5 min and 8 min
Structure (SMILES): NC(=O)c1cccc2cn(-c3ccc([C@@H]4CCCNC4)cc3)nc12 [Nira]
slope [1, 6]: 60.3 s/nM and 61 s/nM and 66.7 s/nM

t1/2est average [2]: 4.05 min and 4.08 min
Structure (SMILES): O=C(c1cc(Cc2n[nH]c(=O)c3ccccc23)ccc1F)N1CCN(C(=O)C2CC2)CC1 [Olaparib]
t1/2est [2]: 4.17 min and 4.5 min and 3 min and 5.5 min and 4 min and 2.83 min

t1/2est average ([1]; PARP1, +HPF1, average): 250 min
t1/2est [1, 6]: 250 min
t1/2est average ([1]; PARP1, without HPF1, average): 57.5 min
Structure (SMILES): CNCc1ccc(-c2[nH]c3cc(F)cc4c3c2CCNC4=O)cc1 [Rucaparib]
PARP-trapping [3]: strong

Structure (SMILES): Cn1ncnc1[C@H]1c2n[nH]c(=O)c3cc(F)cc(c23)N[C@@H]1c1ccc(F)cc1 [Tala]
t1/2est average ([1]; PARP1, +HPF1, average): >333.33 min
t1/2est [1, 6]: 333.33 min
t1/2est average ([1]; PARP1, without HPF1, average): 121.7 min
slope [1, 7]: 1743 s/nM and 2697 s/nM and 2953 s/nM and 2451 s/nM
t1/2est [1, 7]: 138.5 min and 95.83 min and 118.5 min and 134 min
t1/2est average ([2]; PARP2, +HPF1, average): 9.17 min
slope [2, 8]: 91 s/nM and 65 s/nM
t1/2est [2, 8]: 11 min and 10 min and 6.5 min
slope [2, 9]: 180 s/nM and 131 s/nM and 191 s/nM
t1/2est [2, 9]: 7.5 min and 6.5 min
t1/2est average ([2]; PARP2, without HPF1, average): 6.83 min

Structure (SMILES): C[C@]1(c2nc3c(C(N)=O)cccc3[nH]2)CCCN1 [Veliparib]
PARP-trapping [3]: weak

On average ([4]; PARP2, Nuc147): 5.7 per uM per sec
On average ([4]; PARP2, Nuc147/HPF1): 2.3 per uM per sec
Kd ([4]; PARP2, Nuc165): 18 ± 4.6 pM
Kd ([4]; PARP2, Nuc165/HPF1): 24.9 ± 4.7 pM
Kd ([4]; PARP2, p18mer): 14.1 ± 3.9 pM
Off average ([4]; PARP2, p18mer): 0.44 per hr
On (individual replicates) ([4]; PARP2, p18mer): 0.06673 and 0.08057 and 0.1117
On average ([4]; PARP2, p18mer): 8.6 per uM per sec
Kd ([4]; PARP2, p18mer/HPF1): 20.5 ± 4.8 pM
On average ([4]; PARP2, p18mer/HPF1): 5.5 per uM per sec
on rate average ([5]; PARP1, Nuc165): 2.17 per uM per sec
on rate average ([5]; PARP1, Nuc165+HPF1): 4.35 per uM per sec
on rate average ([5]; PARP1, buffer): 0.39 per uM per sec
on rate average ([5]; PARP1, p18mer): 1.27 per uM per sec
on rate average ([5]; PARP1, p18mer+HPF1): 1.95 per uM per sec
Structure (SMILES): CC1=CC(C)=[N+]2C1=Cc1ccc(CCC(=O)N3CCN(C(=O)c4cc(Cc5n[nH]c(=O)c6ccccc56)ccc4F)CC3)n1[B-]2(F)F [fl-Ola]
Off (individual replicates) ([4]; PARP2, Nuc147): 0.000128 per sec and 0.000098 per sec and 0.000096 per sec and 0.000087 per sec
On (individual replicates) ([4]; PARP2, Nuc147): 0.06047 and 0.0458 and 0.0509 and 0.06962
Off (individual replicates) ([4]; PARP2, Nuc147/HPF1): 0.000060 per sec and 0.000066 per sec and 0.000047 per sec
On (individual replicates) ([4]; PARP2, Nuc147/HPF1): 0.02342 and 0.02572 and 0.02231 and 0.02096
Off (individual replicates) ([4]; PARP2, p18mer): 0.000127 per sec and 0.000133 per sec and 0.000111 per sec and 0.000117 per sec
Off (individual replicates) ([4]; PARP2, p18mer/HPF1): 0.000135 per sec and 0.000112 per sec and 0.000093 per sec
On (individual replicates) ([4]; PARP2, p18mer/HPF1): 0.06627 and 0.04795 and 0.05623 and 0.05079
off rate (single run) ([5]; PARP1, Nuc165): 0.004215 per min and 0.004911 per min and 0.004071 per min and 0.00473 per min and 0.004639 per min
off rate (single run) ([5]; PARP1, Nuc165+HPF1): 0.001434 per min and 0.001853 per min and 0.001613 per min and 0.002575 per min and 0.002863 per min
on rate (observed, single run) ([5]; PARP1, Nuc165+HPF1): 0.03904 and 0.05638 and 0.0311 and 0.04561 and 0.04092 and 0.03175 and 0.05953
off rate (single run) ([5]; PARP1, buffer): 0.001297 per min and 0.001272 per min and 0.001404 per min and 0.001129 per min
on rate (observed, single run) ([5]; PARP1, buffer): 0.002763 and 0.003297 and 0.003517 and 0.004488 and 0.003954 and 0.005011 and 0.004368 and 0.00415
off rate (single run) ([5]; PARP1, p18mer): 0.005934 per min and 0.004771 per min and 0.005583 per min and 0.004919 per min and 0.005548 per min
off rate (single run) ([5]; PARP1, p18mer+HPF1): 0.002334 per min and 0.002172 per min and 0.002936 per min and 0.003134 per min and 0.003344 per min
on rate (observed, single run) ([5]; PARP1, p18mer+HPF1): 0.02205 and 0.01731 and 0.01849 and 0.01852 and 0.01515 and 0.01847 and 0.02629

Structure (SMILES): NC(=O)c1ccc(I)c([N+](=O)[O-])c1 [iniparib]
Inhibition of DNA release from PARP1 ([1]; PARP1, 20-2500 nM): not an inhibitor of PARP1; also recorded: does not have this effect
